System: MV-4-11 cells
Assay: Gene expression microarray analysis (Affymetrix PrimeView) and GSEA
Assay type: cell-based, human
Set-up: RFU PODN (11730768_x_at) / Fold change /veh PODN (11730768_x_at) / RFU LINC00158 (11744669_a_at) / Fold change /veh LINC00158 (11744669_a_at) / RFU DUSP10 (11751237_a_at) / Fold change /veh DUSP10 (11751237_a_at) / RFU ID3 (11757404_x_at) / Fold change /veh ID3 (11757404_x_at) / RFU PLEKHG5 (11737974_s_at) / Fold change /veh PLEKHG5 (11737974_s_at) / RFU LRRC4B (11730491_at) / Fold change /veh LRRC4B (11730491_at) / RFU GIMAP4 (11747438_a_at) / Fold change /veh GIMAP4 (11747438_a_at) / RFU KRT8 (11758183_x_at) / Fold change /veh KRT8 (11758183_x_at) / RFU CNN1 (11734310_a_at) / Fold change /veh CNN1 (11734310_a_at) / RFU VPS37D (11726825_at) / Fold change /veh VPS37D (11726825_at) / RFU C10orf10 (11716522_x_at) / Fold change /veh C10orf10 (11716522_x_at) / RFU KIR2DL2 /// KIR2DL4 /// KIR2DL5A /// KIR2DL5B /// KIR2DS1 /// KIR2DS2 /// KIR2DS3 /// KIR2DS4 /// KIR3DL3 /// KIR3DL3 /// KIR3DS1 (11738374_at) / Fold change /veh KIR2DL2 /// KIR2DL4 /// KIR2DL5A /// KIR2DL5B /// KIR2DS1 /// KIR2DS2 /// KIR2DS3 /// KIR2DS4 /// KIR3DL3 /// KIR3DL3 /// KIR3DS1 (11738374_at) / RFU C1QL1 (11718748_at) / Fold change /veh C1QL1 (11718748_at) / RFU TMPRSS4 (11747572_a_at) / Fold change /veh TMPRSS4 (11747572_a_at) / RFU HAMP (11756126_x_at) / Fold change /veh HAMP (11756126_x_at) / RFU RNFT2 (11725882_a_at) / Fold change /veh RNFT2 (11725882_a_at) / RFU NR4A2 (11747474_a_at) / Fold change /veh NR4A2 (11747474_a_at) / RFU ABCC12 (11746883_a_at) / Fold change /veh ABCC12 (11746883_a_at) / RFU TMEM136 (11760407_x_at) / Fold change /veh TMEM136 (11760407_x_at) / RFU CLDN22 /// WWC2 (11732394_at) / Fold change /veh CLDN22 /// WWC2 (11732394_at) / RFU HLA-DPB1 (11760878_x_at) / Fold change /veh HLA-DPB1 (11760878_x_at) / RFU SPINT1 (11716480_a_at) / Fold change /veh SPINT1 (11716480_a_at) / RFU GAP43 (11754022_s_at) / Fold change /veh GAP43 (11754022_s_at) / RFU A4GNT (11735810_at) / Fold change /veh A4GNT (11735810_at) / RFU PRB3 (11715151_x_at) / Fold change /veh PRB3 (11715151_x_at) / RFU TUBB4B (11761932_at) / Fold change /veh TUBB4B (11761932_at) / RFU CAPN14 (11732068_a_at) / Fold change /veh CAPN14 (11732068_a_at) / RFU TMCC2 (11721928_a_at) / Fold change /veh TMCC2 (11721928_a_at) / RFU IRGQ (11745062_a_at) / Fold change /veh IRGQ (11745062_a_at) / RFU FAM174B (11720279_a_at) / Fold change /veh FAM174B (11720279_a_at) / RFU TMPRSS4 (11748680_a_at) / Fold change /veh TMPRSS4 (11748680_a_at) / RFU FAM212B (11763350_a_at) / Fold change /veh FAM212B (11763350_a_at) / RFU PLEKHG5 (11743358_a_at) / Fold change /veh PLEKHG5 (11743358_a_at) / RFU ZSCAN30 (11745921_a_at) / Fold change /veh ZSCAN30 (11745921_a_at) / RFU CMKLR1 (11741424_a_at) / Fold change /veh CMKLR1 (11741424_a_at) / RFU LOC101060620 /// MAPK8IP1 (11723275_at) / Fold change /veh LOC101060620 /// MAPK8IP1 (11723275_at) / RFU SPTSSB (11747773_x_at) / Fold change /veh SPTSSB (11747773_x_at) / RFU PRSS12 (11739890_at) / Fold change /veh PRSS12 (11739890_at) / RFU BIN1 (11741810_x_at) / Fold change /veh BIN1 (11741810_x_at) / RFU WNT11 (11732464_a_at) / Fold change /veh WNT11 (11732464_a_at) / RFU C10orf10 (11716521_a_at) / Fold change /veh C10orf10 (11716521_a_at) / RFU C5orf56 (11738089_at) / Fold change /veh C5orf56 (11738089_at) / RFU CYB561 (11721691_x_at) / Fold change /veh CYB561 (11721691_x_at) / RFU ANKRD19P (11752326_a_at) / Fold change /veh ANKRD19P (11752326_a_at) / RFU OR2T12 /// OR2T33 /// OR2T8 (11738714_s_at) / Fold change /veh OR2T12 /// OR2T33 /// OR2T8 (11738714_s_at) / RFU VCAN (11748164_a_at) / Fold change /veh VCAN (11748164_a_at) / RFU JSRP1 (11732532_at) / Fold change /veh JSRP1 (11732532_at) / RFU KRTAP10-11 (11738290_x_at) / Fold change /veh KRTAP10-11 (11738290_x_at) / RFU MYO3A (11730013_a_at) / Fold change /veh MYO3A (11730013_a_at) / RFU EBF3 (11725865_a_at) / Fold change /veh EBF3 (11725865_a_at) / RFU CAMK2N1 (11719241_x_at) / Fold change /veh CAMK2N1 (11719241_x_at) / RFU C5orf56 (11738088_a_at) / Fold change /veh C5orf56 (11738088_a_at) / RFU OLFML3 (11715873_a_at) / Fold change /veh OLFML3 (11715873_a_at) / RFU LOC100653217 /// NTM (11731650_a_at) / Fold change /veh LOC100653217 /// NTM (11731650_a_at) / RFU MAPK11 (11762145_a_at) / Fold change /veh MAPK11 (11762145_a_at) / RFU FIZ1 (11724087_x_at) / Fold change /veh FIZ1 (11724087_x_at) / RFU OASL (11726364_x_at) / Fold change /veh OASL (11726364_x_at) / RFU SOX15 (11748057_x_at) / Fold change /veh SOX15 (11748057_x_at) / RFU CD79A (11719716_a_at) / Fold change /veh CD79A (11719716_a_at) / RFU HIST1H1D (11736915_at) / Fold change /veh HIST1H1D (11736915_at) / RFU CASKIN2 (11723855_a_at) / Fold change /veh CASKIN2 (11723855_a_at) / RFU LOC730098 (11760151_x_at) / Fold change /veh LOC730098 (11760151_x_at) / RFU OR4N2 (11742367_at) / Fold change /veh OR4N2 (11742367_at) / RFU PRRT2 (11749266_a_at) / Fold change /veh PRRT2 (11749266_a_at) / RFU SNX32 (11753110_a_at) / Fold change /veh SNX32 (11753110_a_at) / RFU CDHR5 (11726645_a_at) / Fold change /veh CDHR5 (11726645_a_at) / RFU RCAN1 (11760418_a_at) / Fold change /veh RCAN1 (11760418_a_at) / RFU FAM167A (11723789_a_at) / Fold change /veh FAM167A (11723789_a_at) / RFU FAM26E (11764081_at) / Fold change /veh FAM26E (11764081_at) / RFU ISYNA1 (11749810_s_at) / Fold change /veh ISYNA1 (11749810_s_at) / RFU ACY1 (11761880_at) / Fold change /veh ACY1 (11761880_at) / RFU 11764098_at / Fold change /veh 11764098_at / RFU SAMD14 (11745864_x_at) / Fold change /veh SAMD14 (11745864_x_at) / RFU NPB (11741838_a_at) / Fold change /veh NPB (11741838_a_at) / RFU TMPRSS6 (11731388_a_at) / Fold change /veh TMPRSS6 (11731388_a_at) / RFU KRTAP10-2 (11738614_at) / Fold change /veh KRTAP10-2 (11738614_at) / RFU ARHGAP8 /// PRR5-ARHGAP8 (11727945_x_at) / Fold change /veh ARHGAP8 /// PRR5-ARHGAP8 (11727945_x_at) / RFU KRTAP5-7 /// NADSYN1 (11734609_at) / Fold change /veh KRTAP5-7 /// NADSYN1 (11734609_at) / RFU RASL12 (11751679_a_at) / Fold change /veh RASL12 (11751679_a_at) / RFU CDKN2B (11736163_a_at) / Fold change /veh CDKN2B (11736163_a_at) / RFU PRF1 (11729649_at) / Fold change /veh PRF1 (11729649_at) / RFU, ZNF638 /// ZNF638-IT1 / Fold change vs veh, ZNF638 /// ZNF638-IT1 / RFU, PANK3 / Fold change vs veh, PANK3 / RFU, SH3YL1 / Fold change vs veh, SH3YL1 / RFU, ZEB2 / Fold change vs veh, ZEB2 / RFU, NRIP1 / Fold change vs veh, NRIP1 / RFU, PTTG1IP / Fold change vs veh, PTTG1IP / RFU, CAPN2 / Fold change vs veh, CAPN2 / RFU, MED14 / Fold change vs veh, MED14 / RFU, SNORA58 / Fold change vs veh, SNORA58 / RFU, C1orf63 / Fold change vs veh, C1orf63 / RFU, LRRFIP1 / Fold change vs veh, LRRFIP1 / RFU, NDUFAF7 / Fold change vs veh, NDUFAF7 / RFU, SLC12A2 / Fold change vs veh, SLC12A2 / RFU, IBTK / Fold change vs veh, IBTK / RFU, ESF1 / Fold change vs veh, ESF1 / Fold change vs veh, TMEM50B / RFU, TAOK1 / Fold change vs veh, TAOK1 / RFU, ACBD3 / Fold change vs veh, ACBD3 / RFU, TMA16 / Fold change vs veh, TMA16 / RFU, RWDD3 / Fold change vs veh, RWDD3 / RFU, BCAT1 / Fold change vs veh, BCAT1 / RFU, EDEM3 / Fold change vs veh, EDEM3 / RFU, TMEM33 / Fold change vs veh, TMEM33 / RFU, WDR75 / Fold change vs veh, WDR75 / RFU, AHCTF1 / Fold change vs veh, AHCTF1 / RFU, TFRC / Fold change vs veh, TFRC / RFU, ZDHHC17 / Fold change vs veh, ZDHHC17 / RFU, NOM1 / Fold change vs veh, NOM1 / RFU, ARL8B / Fold change vs veh, ARL8B / RFU, ZBTB11 / Fold change vs veh, ZBTB11 / RFU, TAMM41 / Fold change vs veh, TAMM41 / RFU, KIAA1704 /// LOC100996395 / Fold change vs veh, KIAA1704 /// LOC100996395 / RFU, ING1 / Fold change vs veh, ING1 / RFU, TRMT61B / Fold change vs veh, TRMT61B / RFU, FUBP3 / Fold change vs veh, FUBP3 / RFU, TP53 / Fold change vs veh, TP53 / RFU, TNKS2 / Fold change vs veh, TNKS2 / RFU, ZFP14 / Fold change vs veh, ZFP14 / RFU, ACTR2 / Fold change vs veh, ACTR2 / RFU, PPP3R1 / Fold change vs veh, PPP3R1 / RFU, PIK3R1 / Fold change vs veh, PIK3R1 / RFU, HNRNPA1 / Fold change vs veh, HNRNPA1 / RFU, RNF170 / Fold change vs veh, RNF170 / RFU, ZNF28 / Fold change vs veh, ZNF28 / RFU, RNGTT / Fold change vs veh, RNGTT / RFU, OGT / Fold change vs veh, OGT / RFU, BRD1 / Fold change vs veh, BRD1 / RFU, MARS / Fold change vs veh, MARS / RFU, ZNF655 / Fold change vs veh, ZNF655 / RFU, FAHD1 / Fold change vs veh, FAHD1 / RFU, BDP1 / Fold change vs veh, BDP1 / RFU, LRRCC1 / Fold change vs veh, LRRCC1 / RFU, ARID1A / Fold change vs veh, ARID1A / RFU, ZNF146 / Fold change vs veh, ZNF146 / RFU, ZNF330 / Fold change vs veh, ZNF330 / RFU, GPN3 / Fold change vs veh, GPN3 / RFU, C9orf123 / Fold change vs veh, C9orf123 / RFU, N4BP2L2 / Fold change vs veh, N4BP2L2 / RFU, ARFIP1 / Fold change vs veh, ARFIP1 / RFU, FAM179B / Fold change vs veh, FAM179B / RFU, BCL10 / Fold change vs veh, BCL10 / RFU, UHRF1BP1L / Fold change vs veh, UHRF1BP1L / RFU, BET1 / Fold change vs veh, BET1 / RFU, CNOT2 / Fold change vs veh, CNOT2 / RFU, ZNF268 / Fold change vs veh, ZNF268 / Fold change vs veh, ZNF507 / RFU, DGCR2 / Fold change vs veh, DGCR2 / RFU, WDSUB1 / Fold change vs veh, WDSUB1 / Fold change vs veh, HSP90B1 /// MIR3652 / RFU, ADSS / Fold change vs veh, ADSS / RFU, GK / Fold change vs veh, GK / RFU, ZNF148 / Fold change vs veh, ZNF148 / RFU, TAF9 / Fold change vs veh, TAF9 / RFU, SLC1A5 / Fold change vs veh, SLC1A5 / RFU, SLMO2 / Fold change vs veh, SLMO2 / RFU, ABCC4 / Fold change vs veh, ABCC4 / RFU, LOC101060439 /// RAP1B / Fold change vs veh, LOC101060439 /// RAP1B / RFU, RFX7 / Fold change vs veh, RFX7 / RFU, GTPBP10 / Fold change vs veh, GTPBP10 / RFU, CNEP1R1 / Fold change vs veh, CNEP1R1 / RFU, BIVM-ERCC5 /// ERCC5 / Fold change vs veh, BIVM-ERCC5 /// ERCC5 / RFU, ILF3 / Fold change vs veh, ILF3 / RFU 11762660_at / Fold change /veh 11762660_at / RFU VCAN (11757783_s_at) / Fold change /veh VCAN (11757783_s_at) / RFU DDX43 (11728927_at) / Fold change /veh DDX43 (11728927_at) / RFU KRT8 (11758188_x_at) / Fold change /veh KRT8 (11758188_x_at) / RFU NKD1 (11759106_at) / Fold change /veh NKD1 (11759106_at) / RFU SRD5A1 (11742802_a_at) / Fold change /veh SRD5A1 (11742802_a_at) / RFU TPSAB1 /// TPSB2 (11721975_s_at) / Fold change /veh TPSAB1 /// TPSB2 (11721975_s_at) / RFU GSTM3 (11746129_a_at) / Fold change /veh GSTM3 (11746129_a_at) / RFU IL23R (11737362_x_at) / Fold change /veh IL23R (11737362_x_at) / RFU TMEM51 (11727254_a_at) / Fold change /veh TMEM51 (11727254_a_at) / RFU PIWIL2 (11732686_x_at) / Fold change /veh PIWIL2 (11732686_x_at) / RFU ORM1 (11744905_x_at) / Fold change /veh ORM1 (11744905_x_at) / RFU CCDC152 (11743942_at) / Fold change /veh CCDC152 (11743942_at) / RFU ECM1 (11717891_a_at) / Fold change /veh ECM1 (11717891_a_at) / RFU IL23R (11748794_a_at) / Fold change /veh IL23R (11748794_a_at) / RFU TNFAIP8L3 (11732012_x_at) / Fold change /veh TNFAIP8L3 (11732012_x_at) / RFU MBOAT4 (11741988_at) / Fold change /veh MBOAT4 (11741988_at) / RFU 11764193_at / Fold change /veh 11764193_at / RFU TMEM53 (11763286_at) / Fold change /veh TMEM53 (11763286_at) / RFU MAGEB2 (11727129_at) / Fold change /veh MAGEB2 (11727129_at) / RFU TMEM200A (11744735_a_at) / Fold change /veh TMEM200A (11744735_a_at) / RFU CCDC152 (11751479_a_at) / Fold change /veh CCDC152 (11751479_a_at) / RFU FAM211A (11726209_a_at) / Fold change /veh FAM211A (11726209_a_at) / RFU RGS16 (11746705_a_at) / Fold change /veh RGS16 (11746705_a_at) / RFU VCAN (11755009_s_at) / Fold change /veh VCAN (11755009_s_at) / RFU RHOB (11743442_s_at) / Fold change /veh RHOB (11743442_s_at) / RFU RGS16 (11720943_a_at) / Fold change /veh RGS16 (11720943_a_at) / RFU RGS16 (11720944_at) / Fold change /veh RGS16 (11720944_at) / RFU, VPS4B / Fold change vs veh, VPS4B / RFU, CREB1 / Fold change vs veh, CREB1 / RFU, DNAJC13 / Fold change vs veh, DNAJC13 / RFU, GNAQ / Fold change vs veh, GNAQ / RFU, CDK5R1 / Fold change vs veh, CDK5R1 / RFU, ZRANB3 / Fold change vs veh, ZRANB3 / RFU, CUL4A / Fold change vs veh, CUL4A / RFU, CCNY / Fold change vs veh, CCNY / RFU, UFL1 / Fold change vs veh, UFL1 / RFU, COG3 / Fold change vs veh, COG3 / RFU, DIAPH2 / Fold change vs veh, DIAPH2 / RFU, SKA2 / Fold change vs veh, SKA2 / RFU, AFF3 / Fold change vs veh, AFF3 / RFU, LMF1 / Fold change vs veh, LMF1 / RFU, IPO11 / Fold change vs veh, IPO11 / RFU, DFFB / Fold change vs veh, DFFB / RFU, FOXP1 / Fold change vs veh, FOXP1 / RFU, CARD8 / Fold change vs veh, CARD8 / RFU, STRN3 / Fold change vs veh, STRN3 / RFU, ADK / Fold change vs veh, ADK / RFU, RASSF2 / Fold change vs veh, RASSF2 / RFU, WIPF1 / Fold change vs veh, WIPF1 / RFU, LARP1B / Fold change vs veh, LARP1B / RFU, RASA1 / Fold change vs veh, RASA1 / RFU, RB1 / Fold change vs veh, RB1 / RFU, PPFIA1 / Fold change vs veh, PPFIA1 / RFU, MAT2A / Fold change vs veh, MAT2A / RFU, CCT5 / Fold change vs veh, CCT5 / RFU, WDR92 / Fold change vs veh, WDR92 / RFU, CUX1 / Fold change vs veh, CUX1 / RFU, TTC7A / Fold change vs veh, TTC7A / RFU, TMEM135 / Fold change vs veh, TMEM135 / RFU, DEPTOR / Fold change vs veh, DEPTOR / RFU, CPM / Fold change vs veh, CPM / RFU, DNAJB6 / Fold change vs veh, DNAJB6 / RFU, CACNA2D3 / Fold change vs veh, CACNA2D3 / RFU, DTX4 / Fold change vs veh, DTX4 / RFU, TFCP2 / Fold change vs veh, TFCP2 / RFU, GMCL1 /// GMCL1P1 / Fold change vs veh, GMCL1 /// GMCL1P1 / RFU, AEBP2 / Fold change vs veh, AEBP2 / RFU, SNHG1 /// SNORD22 /// SNORD25 /// SNORD26 /// SNORD27 /// SNORD28 /// SNORD29 /// SNORD31 / Fold change vs veh, SNHG1 /// SNORD22 /// SNORD25 /// SNORD26 /// SNORD27 /// SNORD28 /// SNORD29 /// SNORD31 / Fold change (Aza/veh), C12orf56 (ProbeSet 11735607_a_at) / Fold change (ACY-1035/veh), C12orf56 (ProbeSet 11735607_a_at) / Fold change (Aza/veh), FGFR1OP (ProbeSet 11751329_s_at) / Fold change (ACY-1035/veh), FGFR1OP (ProbeSet 11751329_s_at) / Fold change (Aza/veh), VPS36 (ProbeSet 11739960_a_at) / Fold change (ACY-1035/veh), VPS36 (ProbeSet 11739960_a_at) / RFU SYPL1 (11715823_x_at) / Fold change /veh SYPL1 (11715823_x_at) / RFU IGFBP7 (11715501_s_at) / Fold change /veh IGFBP7 (11715501_s_at) / RFU REEP3 (11722064_at) / Fold change /veh REEP3 (11722064_at) / RFU IGLL1 (11728026_x_at) / Fold change /veh IGLL1 (11728026_x_at): dose or concentration left out as unconfirmed
Settings: ProbeSet 11741199_a_at; LIST B

Nc1ncn([C@@H]2O[C@H](CO)[C@@H](O)[C@H]2O)c(=O)n1 [azacitidine]
RFU, LRRCC1: 65.24 RFU

— publication PMC5218480 (PLoS ONE, 2017)
